According to US9566330B2, “Immunogenic composition for immune system modulation and use thereof, method for treating and preventing diseases, method for inducing cell regeneration and method for restoring immune response” (priority 2011, dated 2017):

Experiments:
[1] = system: multiresistant Acinetobacter baunnamii; assay: Cultures of the injury area, peripheral blood and central catheter: antibiotic sensitivity; format: cell-based, Acinetobacter baumannii
Method: Initial assessment of the patient's injuries in the operating room on 29 Jan. […] As described, the DECA immunotherapy was applied to these areas. It is interesting to note that on this occasion cultures of internal secretions and tissue fragments were performed.

[2] = system: Septicemia (Pseudomonas aeruginosa, Acinetobacter baunnamii, Proteus mirabiles); assay: Clinical case, patient J-P: septicemia with infected complex wounds; format: in vivo, human; settings: 6 Feb. 2011; Polymyxin B 20,000 IU/kg twice daily and other antimicrobials
Excerpt: The patient was admitted to the ICU of Hospital Alemao Oswaldo Cruz for debridement and application of treatment with DECA which took the following form: • Application of 1.8 cc of the DECA composition divided into 2 applications of 0.9 cc per composition along the 10 main lymphatic territories. • 3-4 cm distance margin between applications to facilitate the reading of the evolution of the treatment at an interval of 4±1 days. These applications were made together with the surgical debridement (on average 1 to 2 times per week). • Administration of 36 extra perilesional compositions of 1.8 cc of each DECA in two applications of 0.9 cc per set, skirting the following open injuries without possibility of suture: the left inguinal region, the lateral side of the left thigh, the anterior left thigh and medial aspect of the left thigh, instep region and left lateral malleolus of the right leg. • Application of recombinant human interleukin-2 at low doses, at a receptor saturation level with a concentration of 1 to 2 million units per m^2 of the patient's body surface located in the region of the extra DECA applications. […]

Compound | Pre-immunotherapy cultures (29/01/2011): sensitivity of the isolate ([1]; Central catheter) | Pre-immunotherapy cultures (29/01/2011): sensitivity of the isolate ([1]; Injury in the left thigh) | Pre-immunotherapy cultures (29/01/2011): sensitivity of the isolate ([1]; Peripheric blood) | sensitivity of the isolate ([1]; isolates of left thigh wound, peripheral blood and central catheter, result of 1 Feb. 2011) | toxicity [2]
C[C@H]1[C@H](NC(=O)/C(=N\OC(C)(C)C(=O)O)c2csc(N)n2)C(=O)N1S(=O)(=O)O [Aztreonam] | baumannii only sensitive | baumannii only sensitive |  |  | 
Polymyxin B | baumannii only sensitive | baumannii only sensitive | baumannii only sensitive | sensitive | acute renal failure with oliguria
